Measurements taken from ChEMBL document CHEMBL2331362, “Identification of N-acyl 4-(5-pyrimidine-2,4-dionyl)phenylalanine derivatives and their orally active prodrug esters as dual-acting alpha4-beta1 and alpha4-beta7 receptor antagonists” (Bioorg Med Chem Lett, 2013).

How the values were obtained:
[1] = AUC (0 to 8 hrs) in rat at 10 mg/kg, iv; type: ADME, organism-based; set-up: time < 8 hr, dose 10 mg/kg, route intravenous; conditions: plasma
[2] = Apparent permeability across human Caco2 cells; type: ADME, cell-based; conditions: Caco-2
[3] = target: Integrin alpha-4/beta-7 (Homo sapiens) (UniProt P13612+P26010); assay: Inhibition of human MAdCAM1 binding to integrin alpha4beta7 receptor in human RPMI 8866 cells labeled with Calcein AM relative to (S)-2-(2-chloro-6-methylbenzamido)-3-(4-(2,6-dichlorobenzamido)phenyl)propanoic acid; type: cell-based
Integrin alpha-4/beta-1 [4] = target: T1, Integrin alpha-4/beta-1 (Homo sapiens, UniProt P05556+P13612); assay: Inhibition of human VCAM1 binding to integrin alpha4beta1 receptor in human Ramos cells labeled with Calcein AM relative to (S)-2-(2-chloro-6-methylbenzamido)-3-(4-(2,6-dichlorobenzamido)phenyl)propanoic acid; type: cell-based
T1 sequence (P05556 whole entry, one chain of several): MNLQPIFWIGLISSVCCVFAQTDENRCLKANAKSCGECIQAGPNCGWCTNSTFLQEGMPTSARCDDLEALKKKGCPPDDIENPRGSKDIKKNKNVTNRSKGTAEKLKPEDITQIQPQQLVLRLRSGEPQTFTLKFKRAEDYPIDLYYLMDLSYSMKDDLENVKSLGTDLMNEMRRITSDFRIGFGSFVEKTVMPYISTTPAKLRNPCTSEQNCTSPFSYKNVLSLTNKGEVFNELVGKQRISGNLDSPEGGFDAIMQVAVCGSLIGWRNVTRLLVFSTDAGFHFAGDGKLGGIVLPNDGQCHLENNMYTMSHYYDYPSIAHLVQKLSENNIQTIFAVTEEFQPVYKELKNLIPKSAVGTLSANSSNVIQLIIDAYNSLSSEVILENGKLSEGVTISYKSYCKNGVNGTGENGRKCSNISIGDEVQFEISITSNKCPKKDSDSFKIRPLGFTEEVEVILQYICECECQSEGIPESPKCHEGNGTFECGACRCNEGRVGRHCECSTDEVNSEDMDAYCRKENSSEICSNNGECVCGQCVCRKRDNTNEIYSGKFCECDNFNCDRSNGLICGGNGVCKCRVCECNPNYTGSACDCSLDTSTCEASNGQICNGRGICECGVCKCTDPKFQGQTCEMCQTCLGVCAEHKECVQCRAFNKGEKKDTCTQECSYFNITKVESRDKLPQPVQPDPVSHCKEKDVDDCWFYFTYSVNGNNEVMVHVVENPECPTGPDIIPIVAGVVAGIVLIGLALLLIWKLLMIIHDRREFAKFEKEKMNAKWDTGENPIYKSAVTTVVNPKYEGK

Integrin alpha-4/beta-7 = target: T2, Integrin alpha-4/beta-7 (Homo sapiens, UniProt P13612+P26010); assay: Inhibition of human MAdCAM1 binding to integrin alpha4beta7 receptor in human RPMI 8866 cells labeled with Calcein AM; type: cell-based
T2 sequence (P13612 whole entry): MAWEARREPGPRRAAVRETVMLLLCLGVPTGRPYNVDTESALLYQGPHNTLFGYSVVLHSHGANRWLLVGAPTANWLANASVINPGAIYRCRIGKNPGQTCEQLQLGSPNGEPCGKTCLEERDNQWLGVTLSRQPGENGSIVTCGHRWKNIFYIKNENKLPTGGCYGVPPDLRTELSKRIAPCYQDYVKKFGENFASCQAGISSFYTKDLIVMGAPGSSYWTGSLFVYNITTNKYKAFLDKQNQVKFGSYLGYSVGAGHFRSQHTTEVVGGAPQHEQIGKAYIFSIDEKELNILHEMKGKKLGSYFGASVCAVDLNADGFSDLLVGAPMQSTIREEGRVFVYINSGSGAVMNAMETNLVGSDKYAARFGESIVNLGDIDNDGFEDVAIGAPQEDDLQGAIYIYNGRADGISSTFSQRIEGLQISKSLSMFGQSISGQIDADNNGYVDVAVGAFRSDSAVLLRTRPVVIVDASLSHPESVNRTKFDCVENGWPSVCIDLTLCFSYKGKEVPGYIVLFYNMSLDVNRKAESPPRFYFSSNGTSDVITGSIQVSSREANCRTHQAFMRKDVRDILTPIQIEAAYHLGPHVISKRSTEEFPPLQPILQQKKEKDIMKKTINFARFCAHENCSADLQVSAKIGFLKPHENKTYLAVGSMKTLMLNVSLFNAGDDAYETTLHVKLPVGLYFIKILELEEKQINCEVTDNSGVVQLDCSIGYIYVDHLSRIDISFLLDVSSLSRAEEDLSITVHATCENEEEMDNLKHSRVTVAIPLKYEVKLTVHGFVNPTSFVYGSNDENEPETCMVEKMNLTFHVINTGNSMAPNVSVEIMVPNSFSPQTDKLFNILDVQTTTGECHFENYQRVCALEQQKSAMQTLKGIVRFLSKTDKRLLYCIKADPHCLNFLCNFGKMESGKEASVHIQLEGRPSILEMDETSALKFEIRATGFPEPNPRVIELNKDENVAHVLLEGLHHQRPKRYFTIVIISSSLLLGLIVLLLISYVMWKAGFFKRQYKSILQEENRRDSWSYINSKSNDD
T2 sequence (P26010 whole entry): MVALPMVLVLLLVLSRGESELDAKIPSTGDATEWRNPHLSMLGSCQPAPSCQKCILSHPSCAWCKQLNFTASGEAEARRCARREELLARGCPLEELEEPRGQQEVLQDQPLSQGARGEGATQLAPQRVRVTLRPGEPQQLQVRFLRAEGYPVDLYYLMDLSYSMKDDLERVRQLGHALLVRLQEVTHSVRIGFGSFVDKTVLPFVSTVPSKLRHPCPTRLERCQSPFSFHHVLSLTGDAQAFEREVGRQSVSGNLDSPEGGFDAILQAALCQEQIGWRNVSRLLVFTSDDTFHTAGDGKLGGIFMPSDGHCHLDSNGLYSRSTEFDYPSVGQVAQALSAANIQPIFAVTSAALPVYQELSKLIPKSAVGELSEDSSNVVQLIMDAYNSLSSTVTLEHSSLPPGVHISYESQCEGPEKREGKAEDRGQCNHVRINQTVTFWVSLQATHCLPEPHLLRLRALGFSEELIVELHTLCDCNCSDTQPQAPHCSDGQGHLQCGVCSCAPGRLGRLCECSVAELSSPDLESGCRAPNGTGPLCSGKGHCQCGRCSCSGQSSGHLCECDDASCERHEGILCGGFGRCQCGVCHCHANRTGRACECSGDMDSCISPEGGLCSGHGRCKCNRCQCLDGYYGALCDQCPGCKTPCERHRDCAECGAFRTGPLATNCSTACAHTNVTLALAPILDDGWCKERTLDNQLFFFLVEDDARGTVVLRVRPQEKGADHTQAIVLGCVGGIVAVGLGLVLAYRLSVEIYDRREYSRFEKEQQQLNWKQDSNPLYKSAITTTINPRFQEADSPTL

Integrin alpha-4/beta-1 [5] = target: T1, Integrin alpha-4/beta-1; assay: Inhibition of human VCAM1 binding to integrin alpha4beta1 receptor in human Ramos cells labeled with Calcein AM; type: cell-based
[6] = Distribution coefficient, log D of the compound; type: physicochemical; conditions: octanol/water
[7] = Mean residence time in cynomolgus monkey at 10 mg/kg, iv; type: ADME, organism-based, Macaca fascicularis; set-up: dose 10 mg/kg, route intravenous; conditions: in vivo
[8] = Mean residence time in dog at 5 mg/kg, iv; type: ADME, organism-based, Canis lupus familiaris; set-up: dose 5 mg/kg, route intravenous; conditions: in vivo
[9] = Mean residence time in rat at 10 mg/kg, iv; type: ADME, organism-based; set-up: dose 10 mg/kg, route intravenous; conditions: in vivo
[10] = Mean residence time in mouse at 10 mg/kg, iv; type: ADME, organism-based; set-up: dose 10 mg/kg, route intravenous; conditions: in vivo
[11] = Half life in cynomolgus monkey at 10 mg/kg, iv; type: ADME, organism-based, Macaca fascicularis; set-up: dose 10 mg/kg, route intravenous; conditions: in vivo
[12] = Half life in dog at 5 mg/kg, iv; type: ADME, organism-based, Canis lupus familiaris; set-up: dose 5 mg/kg, route intravenous; conditions: in vivo
[13] = Clearance in cynomolgus monkey at 10 mg/kg, iv; type: ADME, organism-based, Macaca fascicularis; set-up: dose 10 mg/kg, route intravenous; conditions: in vivo
[14] = Clearance in dog at 5 mg/kg, iv; type: ADME, organism-based, Canis lupus familiaris; set-up: dose 5 mg/kg, route intravenous; conditions: in vivo
[15] = Clearance in mouse at 10 mg/kg, iv; type: ADME, organism-based; set-up: dose 10 mg/kg, route intravenous; conditions: in vivo
[16] = Clearance in rat at 10 mg/kg, iv; type: ADME, organism-based; set-up: dose 10 mg/kg, route intravenous; conditions: in vivo
[17] = AUC (0 to 8 hrs) in cynomolgus monkey at 10 mg/kg, iv; type: ADME, organism-based, Macaca fascicularis; set-up: time < 8 hr, dose 10 mg/kg, route intravenous; conditions: plasma
[18] = AUC (0 to 8 hrs) in dog at 5 mg/kg, iv; type: ADME, organism-based, Canis lupus familiaris; set-up: time < 8 hr, dose 5 mg/kg, route intravenous; conditions: plasma
[19] = AUC (0 to 8 hrs) in mouse at 10 mg/kg, iv; type: ADME, organism-based; set-up: time < 8 hr, dose 10 mg/kg, route intravenous; conditions: plasma

AUC(0-t) at 8 h [1]: 41500 ng·h/mL | Papp [2]: 0.77 ×10⁻⁶ cm/s | Ratio IC50 [3]: 3.3 | Ratio IC50 (Integrin alpha-4/beta-1 [4]): 3.2 | IC50 (Integrin alpha-4/beta-7): 81 nM | IC50 (Integrin alpha-4/beta-1 [5]): 18 nM | logD [6]: -2.36 | MRT [7]: 15 min | MRT [8]: 12.6 min | MRT [9]: 36.6 min | MRT [10]: 15.6 min | half-life [11]: 87.6 min | half-life [12]: 11.4 min | clearance [13]: 6.88 mL/min/kg | clearance [14]: 29.7 mL/min/kg | clearance [15]: 21 mL/min/kg | clearance [16]: 4.8 mL/min/kg | AUC(0-t) at 8 h [17]: 22200 ng·h/mL | AUC(0-t) at 8 h [18]: 2790 ng·h/mL | AUC(0-t) at 8 h [19]: 7890 ng·h/mL
SMILES: Cc1c(-c2ccc(C[C@H](NC(=O)c3c(F)cccc3F)C(=O)O)cc2)c(=O)n(C)c(=O)n1C
